Measured values reported in PubChem BioAssay AID2060501 (Molecular Pharmacology Branch, DTP, NCI, 2025).

Tested on: 282377-053-R-J1-PDC complex spheroids, viability
Assay: Anticancer human tumor 282377-053-R-J1-PDC patient-derived colon adenocarcinoma cell line growth inhibition [GQUAD]
Conditions: for IC50: curve of first compound; for viability, T/C: stronger effect = lower value
From the text: DNA G-quadruplex Stabilizer Agents in Combinations in Complex Spheroids
A high-throughput screen of multi-cell type tumor spheroids was designed to identify active combinations of DNA G-quadruplex stabilizer agents and targeted small molecules. Complex spheroids include a stromal component modeled by human endothelial cells (HUVEC) and fibroblasts modeled by human mesenchymal stem cells (MSCs). The concentration ranges selected for each drug and investigational agent were based upon clinically achievable concentrations if the clinical Cmax of the agent was known.
Compounds. The drugs and investigational agents: pidnarulex (CX-5461; NSC782164), APTO-253 (NSC789042), BRACO-19 (NSC847499), peposertib (NSC802822), ceralasertib (NSC780249), elimusertib (NSC800525), camonsertib (NSC841442), AZD-1390 (NSC803789), olaparib (NSC753686), talazoparib (NSC767125), ART-558 (NSC835418), sotorasib (NSC818433), MRTX-1133 (NSC836407), SN-38 (NSC673596), topotecan (NSC609699), etoposide (NSC141540), doxorubicin (NSC123127), gemcitabine (NSC613327), 5-fluorouracil (NSC19893), paclitaxel (NSC125973), vemurafenib (NSC761431), panobinostat (NSC761190), R-306465 (JNJ-16241199; NSC773264), adavosertib (NSC754352), TP-3654 (NSC805149), carboplatin (NSC241240), KSQ-4279 (NSC840948), and staurosporine (NSC755774) were obtained from the National Cancer Institute (NCI) Developmental Therapeutics Program Chemical Repository (34). The FDA-approved anticancer drug set is available from the NCI Developmental Therapeutics Program. […] The stock solutions were prepared in dimethyl sulfoxide (DMSO, Sigma-Aldrich, St. Louis, MO, cat. D2650) at 800-fold the tested concentration and stored at -70 degrees C prior to their use. All drugs and investigational agents were tested over a range starting from a high concentration at or near the clinical Cmax and decreasing in half-log increments. If the clinical Cmax for an agent had not been determined, the highest concentration tested was 10 microM.
2.3 Cell Culture. All cells were maintained in an incubator at 37 degrees C and 5% CO2 with 95% humidity. The PDC lines were cultured according to standard operating procedures established by the NCI PDMR. All PDCs were thawed and cultured in Matrigel-coated flasks prepared with a working solution of 1X Ham's F-12 nutrient mix, without supplementation (Invitrogen, cat. 11765054), 100 U/mL penicillin-streptomycin (Invitrogen, cat. 15140122), and 2.5% Matrigel (Corning Inc., cat. 354248) for the first three passages. The 857933-349-R-J2-PDC line was cultured in 6C/Colon 1B media, which includes advanced DMEM/F-12 (Thermo Fisher Scientific, cat. 12634028), 10 mM HEPES (Thermo Fisher Scientific, cat. 15630080), 1X GlutaMAX supplement (Thermo Fisher Scientific, cat. 35050061), 0.1 mg/mL primocin (InvivoGen, cat. ant-pm-2), 10% defined fetal bovine serum, heat inactivated (HyClone Laboratories Inc., cat. SH30070.03HI), 50% L-WRN conditioned media (ATCC, cat. CRL-3276), 1.25 mM N-Acetyl-L-cysteine (Sigma-Aldrich, cat. A9165), 10 mM nicotinamide (Sigma-Aldrich, cat. N0636), 1X B-27 supplement (Thermo Fisher Scientific, cat. 17504044), 1X N-2 supplement (Thermo Fisher Scientific, cat. 17502048), 10 microM Y-27632 dihydrochloride (Tocris Bioscience, cat. 1254), and 50 ng/mL human EGF recombinant protein (Thermo Fisher Scientific, cat. PHG0311). The 485176-168-R4-J1-PDC line was cultured in Panc media, which includes all 6C/Colon 1B media components plus 100 ng/mL human FGF-10 (Thermo Fisher Scientific, cat. 100-26), 500 nM SB-431542 (Selleckchem, cat. S1067), and gastrin (Tocris, cat. 3006).
[…]

[1] = second compound 0.0316 µM, first compound 0.0316 µM
[2] = second compound 0.0316 µM, first compound 0.316 µM
[3] = second compound 0.1 µM, first compound 0.0316 µM
[4] = second compound 0.1 µM, first compound 0.316 µM
[5] = second compound 0.316 µM, first compound 0.0316 µM
[6] = second compound 0.316 µM, first compound 0.316 µM
[7] = second compound 1 µM, first compound 0.0316 µM
[8] = second compound 1 µM, first compound 0.316 µM
[9] = second compound 3.16 µM, first compound 0.0316 µM
[10] = second compound 3.16 µM, first compound 0.316 µM
[11] = second compound 10 µM, first compound 0.0316 µM
[12] = second compound 10 µM, first compound 0.316 µM
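Further: spheroids exposed to compounds for 7 days before readout.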
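Wherever viability, T/C is given: percent of vehicle DMSO control viability with 100% = untreated-like growth.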

## C=CC(=O)N1CCN(c2nc(=O)n(-c3c(C)ccnc3C(C)C)c3nc(-c4c(O)cccc4F)c(F)cc23)C(C)C1 (centres undefined) + CN(C)c1ccc(Nc2c3ccc(NC(=O)CCN4CCCC4)cc3nc3cc(NC(=O)CCN4CCCC4)ccc23)cc1
Second compound 0.0316 µM
  IC50: > 10 µM
Second compound 0.1 µM
  IC50: > 10 µM
Second compound 0.316 µM
  IC50: > 10 µM
Second compound 1 µM
  IC50: > 10 µM
Second compound 3.16 µM
  IC50: > 10 µM
Second compound 10 µM
  IC50: > 10 µM
[1]
  viability, T/C: 105%
Second compound 0.0316 µM, first compound 0.1 µM
  viability, T/C: 104%
[2]
  viability, T/C: 99.3%
Second compound 0.0316 µM, first compound 1 µM
  viability, T/C: 99%
Second compound 0.0316 µM, first compound 3.16 µM
  viability, T/C: 87%
Second compound 0.0316 µM, first compound 10 µM
  viability, T/C: 79%
[3]
  viability, T/C: 107%
Second compound 0.1 µM, first compound 0.1 µM
  viability, T/C: 94.5%
[4]
  viability, T/C: 110%
Second compound 0.1 µM, first compound 1 µM
  viability, T/C: 96%
Second compound 0.1 µM, first compound 3.16 µM
  viability, T/C: 107%
Second compound 0.1 µM, first compound 10 µM
  viability, T/C: 66.6%
[5]
  viability, T/C: 115%
Second compound 0.316 µM, first compound 0.1 µM
  viability, T/C: 97.6%
[6]
  viability, T/C: 103%
Second compound 0.316 µM, first compound 1 µM
  viability, T/C: 101%
Second compound 0.316 µM, first compound 3.16 µM
  viability, T/C: 103%
Second compound 0.316 µM, first compound 10 µM
  viability, T/C: 72.4%
[7]
  viability, T/C: 112%
Second compound 1 µM, first compound 0.1 µM
  viability, T/C: 99.5%
[8]
  viability, T/C: 98.5%
Second compound 1 µM, first compound 1 µM
  viability, T/C: 95.9%
Second compound 1 µM, first compound 3.16 µM
  viability, T/C: 90.5%
Second compound 1 µM, first compound 10 µM
  viability, T/C: 92.8%
[9]
  viability, T/C: 105%
Second compound 3.16 µM, first compound 0.1 µM
  viability, T/C: 90.2%
[10]
  viability, T/C: 100%
Second compound 3.16 µM, first compound 1 µM
  viability, T/C: 84.9%
Second compound 3.16 µM, first compound 3.16 µM
  viability, T/C: 79.9%
Second compound 3.16 µM, first compound 10 µM
  viability, T/C: 89.9%
[11]
  viability, T/C: 111%
Second compound 10 µM, first compound 0.1 µM
  viability, T/C: 93.3%
[12]
  viability, T/C: 94.5%
Second compound 10 µM, first compound 1 µM
  viability, T/C: 79.8%
Second compound 10 µM, first compound 3.16 µM
  viability, T/C: 88.3%
Second compound 10 µM, first compound 10 µM
  viability, T/C: 86.5%

## CC[C@@]1(O)C(=O)OCc2c1cc1n(c2=O)Cc2cc3c(CN(C)C)c(O)ccc3nc2-1 + CN(C)c1ccc(Nc2c3ccc(NC(=O)CCN4CCCC4)cc3nc3cc(NC(=O)CCN4CCCC4)ccc23)cc1
Second compound 0.0316 µM
  IC50: > 0.316 µM
Second compound 0.1 µM
  IC50: > 0.316 µM
Second compound 0.316 µM
  IC50: > 0.316 µM
Second compound 1 µM
  IC50: > 0.316 µM
Second compound 3.16 µM
  IC50: > 0.316 µM
Second compound 10 µM
  IC50: > 0.316 µM
Second compound 0.0316 µM, first compound 0.000999 µM
  viability, T/C: 108%
Second compound 0.0316 µM, first compound 0.00316 µM
  viability, T/C: 102%
Second compound 0.0316 µM, first compound 0.00999 µM
  viability, T/C: 103%
[1]
  viability, T/C: 118%
Second compound 0.0316 µM, first compound 0.0999 µM
  viability, T/C: 104%
[2]
  viability, T/C: 91%
Second compound 0.1 µM, first compound 0.000999 µM
  viability, T/C: 92.8%
Second compound 0.1 µM, first compound 0.00316 µM
  viability, T/C: 103%
Second compound 0.1 µM, first compound 0.00999 µM
  viability, T/C: 95.2%
[3]
  viability, T/C: 107%
Second compound 0.1 µM, first compound 0.0999 µM
  viability, T/C: 115%
[4]
  viability, T/C: 90.5%
Second compound 0.316 µM, first compound 0.000999 µM
  viability, T/C: 105%
Second compound 0.316 µM, first compound 0.00316 µM
  viability, T/C: 113%
Second compound 0.316 µM, first compound 0.00999 µM
  viability, T/C: 88.5%
[5]
  viability, T/C: 88.3%
Second compound 0.316 µM, first compound 0.0999 µM
  viability, T/C: 104%
[6]
  viability, T/C: 101%
Second compound 1 µM, first compound 0.000999 µM
  viability, T/C: 99.3%
Second compound 1 µM, first compound 0.00316 µM
  viability, T/C: 101%
Second compound 1 µM, first compound 0.00999 µM
  viability, T/C: 93%
[7]
  viability, T/C: 89.7%
Second compound 1 µM, first compound 0.0999 µM
  viability, T/C: 108%
[8]
  viability, T/C: 87%
Second compound 3.16 µM, first compound 0.000999 µM
  viability, T/C: 90.6%
Second compound 3.16 µM, first compound 0.00316 µM
  viability, T/C: 87.3%
Second compound 3.16 µM, first compound 0.00999 µM
  viability, T/C: 97.8%
[9]
  viability, T/C: 86.2%
Second compound 3.16 µM, first compound 0.0999 µM
  viability, T/C: 102%
[10]
  viability, T/C: 82.2%
Second compound 10 µM, first compound 0.000999 µM
  viability, T/C: 88.5%
Second compound 10 µM, first compound 0.00316 µM
  viability, T/C: 85.7%
Second compound 10 µM, first compound 0.00999 µM
  viability, T/C: 94.7%
[11]
  viability, T/C: 79.7%
Second compound 10 µM, first compound 0.0999 µM
  viability, T/C: 77.3%
[12]
  viability, T/C: 97%
